The numbers were not newly measured in US12414943B2 (ACASTI PHARMA U.S., INC., priority 2022, dated 2025), which cites them from elsewhere.

The conditions of series [1]: man, oral.
For series [2] the following is noted: nimodipine-treated SAH patients.

Turning to `COCCOC(=O)C1=C(C)NC(C)=C(C(=O)OC(C)C)C1c1cccc([N+](=O)[O-])c1` (centres unmarked) [Nimodipine, isopropyl2-methoxyethyl 1,4-dihydro-2,6-dimethyl-4-(m-nitrophenyl)-3,5-pyridinedicarboxylate], the “half-life equivalent to earlier elimination rates” value in series [1] was 1 to 2 h. Besides, in series [2], the “concentration in the cerebrospinal fluid” value was ≤ 12.5 ng/mL.
